Each structure is given as a SMILES string.

For the test, the system named is MV-4-11 cells. Nature of the test: Gene expression microarray analysis (Affymetrix PrimeView) and GSEA. The test is classed as cell-based, human. The arrangement: RFU PODN (11730768_x_at) / Fold change /veh PODN (11730768_x_at) / RFU LINC00158 (11744669_a_at) / Fold change /veh LINC00158 (11744669_a_at) / RFU DUSP10 (11751237_a_at) / Fold change /veh DUSP10 (11751237_a_at) / RFU ID3 (11757404_x_at) / Fold change /veh ID3 (11757404_x_at) / RFU PLEKHG5 (11737974_s_at) / Fold change /veh PLEKHG5 (11737974_s_at) / RFU LRRC4B (11730491_at) / Fold change /veh LRRC4B (11730491_at) / RFU GIMAP4 (11747438_a_at) / Fold change /veh GIMAP4 (11747438_a_at) / RFU KRT8 (11758183_x_at) / Fold change /veh KRT8 (11758183_x_at) / RFU CNN1 (11734310_a_at) / Fold change /veh CNN1 (11734310_a_at) / RFU VPS37D (11726825_at) / Fold change /veh VPS37D (11726825_at) / RFU C10orf10 (11716522_x_at) / Fold change /veh C10orf10 (11716522_x_at) / RFU KIR2DL2 /// KIR2DL4 /// KIR2DL5A /// KIR2DL5B /// KIR2DS1 /// KIR2DS2 /// KIR2DS3 /// KIR2DS4 /// KIR3DL3 /// KIR3DL3 /// KIR3DS1 (11738374_at) / Fold change /veh KIR2DL2 /// KIR2DL4 /// KIR2DL5A /// KIR2DL5B /// KIR2DS1 /// KIR2DS2 /// KIR2DS3 /// KIR2DS4 /// KIR3DL3 /// KIR3DL3 /// KIR3DS1 (11738374_at) / RFU C1QL1 (11718748_at) / Fold change /veh C1QL1 (11718748_at) / RFU TMPRSS4 (11747572_a_at) / Fold change /veh TMPRSS4 (11747572_a_at) / RFU HAMP (11756126_x_at) / Fold change /veh HAMP (11756126_x_at) / RFU RNFT2 (11725882_a_at) / Fold change /veh RNFT2 (11725882_a_at) / RFU NR4A2 (11747474_a_at) / Fold change /veh NR4A2 (11747474_a_at) / RFU ABCC12 (11746883_a_at) / Fold change /veh ABCC12 (11746883_a_at) / RFU TMEM136 (11760407_x_at) / Fold change /veh TMEM136 (11760407_x_at) / RFU CLDN22 /// WWC2 (11732394_at) / Fold change /veh CLDN22 /// WWC2 (11732394_at) / RFU HLA-DPB1 (11760878_x_at) / Fold change /veh HLA-DPB1 (11760878_x_at) / RFU SPINT1 (11716480_a_at) / Fold change /veh SPINT1 (11716480_a_at) / RFU GAP43 (11754022_s_at) / Fold change /veh GAP43 (11754022_s_at) / RFU A4GNT (11735810_at) / Fold change /veh A4GNT (11735810_at) / RFU PRB3 (11715151_x_at) / Fold change /veh PRB3 (11715151_x_at) / RFU TUBB4B (11761932_at) / Fold change /veh TUBB4B (11761932_at) / RFU CAPN14 (11732068_a_at) / Fold change /veh CAPN14 (11732068_a_at) / RFU TMCC2 (11721928_a_at) / Fold change /veh TMCC2 (11721928_a_at) / RFU IRGQ (11745062_a_at) / Fold change /veh IRGQ (11745062_a_at) / RFU FAM174B (11720279_a_at) / Fold change /veh FAM174B (11720279_a_at) / RFU TMPRSS4 (11748680_a_at) / Fold change /veh TMPRSS4 (11748680_a_at) / RFU FAM212B (11763350_a_at) / Fold change /veh FAM212B (11763350_a_at) / RFU PLEKHG5 (11743358_a_at) / Fold change /veh PLEKHG5 (11743358_a_at) / RFU ZSCAN30 (11745921_a_at) / Fold change /veh ZSCAN30 (11745921_a_at) / RFU CMKLR1 (11741424_a_at) / Fold change /veh CMKLR1 (11741424_a_at) / RFU LOC101060620 /// MAPK8IP1 (11723275_at) / Fold change /veh LOC101060620 /// MAPK8IP1 (11723275_at) / RFU SPTSSB (11747773_x_at) / Fold change /veh SPTSSB (11747773_x_at) / RFU PRSS12 (11739890_at) / Fold change /veh PRSS12 (11739890_at) / RFU BIN1 (11741810_x_at) / Fold change /veh BIN1 (11741810_x_at) / RFU WNT11 (11732464_a_at) / Fold change /veh WNT11 (11732464_a_at) / RFU C10orf10 (11716521_a_at) / Fold change /veh C10orf10 (11716521_a_at) / RFU C5orf56 (11738089_at) / Fold change /veh C5orf56 (11738089_at) / RFU CYB561 (11721691_x_at) / Fold change /veh CYB561 (11721691_x_at) / RFU ANKRD19P (11752326_a_at) / Fold change /veh ANKRD19P (11752326_a_at) / RFU OR2T12 /// OR2T33 /// OR2T8 (11738714_s_at) / Fold change /veh OR2T12 /// OR2T33 /// OR2T8 (11738714_s_at) / RFU VCAN (11748164_a_at) / Fold change /veh VCAN (11748164_a_at) / RFU JSRP1 (11732532_at) / Fold change /veh JSRP1 (11732532_at) / RFU KRTAP10-11 (11738290_x_at) / Fold change /veh KRTAP10-11 (11738290_x_at) / RFU MYO3A (11730013_a_at) / Fold change /veh MYO3A (11730013_a_at) / RFU EBF3 (11725865_a_at) / Fold change /veh EBF3 (11725865_a_at) / RFU CAMK2N1 (11719241_x_at) / Fold change /veh CAMK2N1 (11719241_x_at) / RFU C5orf56 (11738088_a_at) / Fold change /veh C5orf56 (11738088_a_at) / RFU OLFML3 (11715873_a_at) / Fold change /veh OLFML3 (11715873_a_at) / RFU LOC100653217 /// NTM (11731650_a_at) / Fold change /veh LOC100653217 /// NTM (11731650_a_at) / RFU MAPK11 (11762145_a_at) / Fold change /veh MAPK11 (11762145_a_at) / RFU FIZ1 (11724087_x_at) / Fold change /veh FIZ1 (11724087_x_at) / RFU OASL (11726364_x_at) / Fold change /veh OASL (11726364_x_at) / RFU SOX15 (11748057_x_at) / Fold change /veh SOX15 (11748057_x_at) / RFU CD79A (11719716_a_at) / Fold change /veh CD79A (11719716_a_at) / RFU HIST1H1D (11736915_at) / Fold change /veh HIST1H1D (11736915_at) / RFU CASKIN2 (11723855_a_at) / Fold change /veh CASKIN2 (11723855_a_at) / RFU LOC730098 (11760151_x_at) / Fold change /veh LOC730098 (11760151_x_at) / RFU OR4N2 (11742367_at) / Fold change /veh OR4N2 (11742367_at) / RFU PRRT2 (11749266_a_at) / Fold change /veh PRRT2 (11749266_a_at) / RFU SNX32 (11753110_a_at) / Fold change /veh SNX32 (11753110_a_at) / RFU CDHR5 (11726645_a_at) / Fold change /veh CDHR5 (11726645_a_at) / RFU RCAN1 (11760418_a_at) / Fold change /veh RCAN1 (11760418_a_at) / RFU FAM167A (11723789_a_at) / Fold change /veh FAM167A (11723789_a_at) / RFU FAM26E (11764081_at) / Fold change /veh FAM26E (11764081_at) / RFU ISYNA1 (11749810_s_at) / Fold change /veh ISYNA1 (11749810_s_at) / RFU ACY1 (11761880_at) / Fold change /veh ACY1 (11761880_at) / RFU 11764098_at / Fold change /veh 11764098_at / RFU SAMD14 (11745864_x_at) / Fold change /veh SAMD14 (11745864_x_at) / RFU NPB (11741838_a_at) / Fold change /veh NPB (11741838_a_at) / RFU TMPRSS6 (11731388_a_at) / Fold change /veh TMPRSS6 (11731388_a_at) / RFU KRTAP10-2 (11738614_at) / Fold change /veh KRTAP10-2 (11738614_at) / RFU ARHGAP8 /// PRR5-ARHGAP8 (11727945_x_at) / Fold change /veh ARHGAP8 /// PRR5-ARHGAP8 (11727945_x_at) / RFU KRTAP5-7 /// NADSYN1 (11734609_at) / Fold change /veh KRTAP5-7 /// NADSYN1 (11734609_at) / RFU RASL12 (11751679_a_at) / Fold change /veh RASL12 (11751679_a_at) / RFU CDKN2B (11736163_a_at) / Fold change /veh CDKN2B (11736163_a_at) / RFU PRF1 (11729649_at) / Fold change /veh PRF1 (11729649_at) / RFU, ZNF638 /// ZNF638-IT1 / Fold change vs veh, ZNF638 /// ZNF638-IT1 / RFU, PANK3 / Fold change vs veh, PANK3 / RFU, SH3YL1 / Fold change vs veh, SH3YL1 / RFU, ZEB2 / Fold change vs veh, ZEB2 / RFU, NRIP1 / Fold change vs veh, NRIP1 / RFU, PTTG1IP / Fold change vs veh, PTTG1IP / RFU, CAPN2 / Fold change vs veh, CAPN2 / RFU, MED14 / Fold change vs veh, MED14 / RFU, SNORA58 / Fold change vs veh, SNORA58 / RFU, C1orf63 / Fold change vs veh, C1orf63 / RFU, LRRFIP1 / Fold change vs veh, LRRFIP1 / RFU, NDUFAF7 / Fold change vs veh, NDUFAF7 / RFU, SLC12A2 / Fold change vs veh, SLC12A2 / RFU, IBTK / Fold change vs veh, IBTK / RFU, ESF1 / Fold change vs veh, ESF1 / Fold change vs veh, TMEM50B / RFU, TAOK1 / Fold change vs veh, TAOK1 / RFU, ACBD3 / Fold change vs veh, ACBD3 / RFU, TMA16 / Fold change vs veh, TMA16 / RFU, RWDD3 / Fold change vs veh, RWDD3 / RFU, BCAT1 / Fold change vs veh, BCAT1 / RFU, EDEM3 / Fold change vs veh, EDEM3 / RFU, TMEM33 / Fold change vs veh, TMEM33 / RFU, WDR75 / Fold change vs veh, WDR75 / RFU, AHCTF1 / Fold change vs veh, AHCTF1 / RFU, TFRC / Fold change vs veh, TFRC / RFU, ZDHHC17 / Fold change vs veh, ZDHHC17 / RFU, NOM1 / Fold change vs veh, NOM1 / RFU, ARL8B / Fold change vs veh, ARL8B / RFU, ZBTB11 / Fold change vs veh, ZBTB11 / RFU, TAMM41 / Fold change vs veh, TAMM41 / RFU, KIAA1704 /// LOC100996395 / Fold change vs veh, KIAA1704 /// LOC100996395 / RFU, ING1 / Fold change vs veh, ING1 / RFU, TRMT61B / Fold change vs veh, TRMT61B / RFU, FUBP3 / Fold change vs veh, FUBP3 / RFU, TP53 / Fold change vs veh, TP53 / RFU, TNKS2 / Fold change vs veh, TNKS2 / RFU, ZFP14 / Fold change vs veh, ZFP14 / RFU, ACTR2 / Fold change vs veh, ACTR2 / RFU, PPP3R1 / Fold change vs veh, PPP3R1 / RFU, PIK3R1 / Fold change vs veh, PIK3R1 / RFU, HNRNPA1 / Fold change vs veh, HNRNPA1 / RFU, RNF170 / Fold change vs veh, RNF170 / RFU, ZNF28 / Fold change vs veh, ZNF28 / RFU, RNGTT / Fold change vs veh, RNGTT / RFU, OGT / Fold change vs veh, OGT / RFU, BRD1 / Fold change vs veh, BRD1 / RFU, MARS / Fold change vs veh, MARS / RFU, ZNF655 / Fold change vs veh, ZNF655 / RFU, FAHD1 / Fold change vs veh, FAHD1 / RFU, BDP1 / Fold change vs veh, BDP1 / RFU, LRRCC1 / Fold change vs veh, LRRCC1 / RFU, ARID1A / Fold change vs veh, ARID1A / RFU, ZNF146 / Fold change vs veh, ZNF146 / RFU, ZNF330 / Fold change vs veh, ZNF330 / RFU, GPN3 / Fold change vs veh, GPN3 / RFU, C9orf123 / Fold change vs veh, C9orf123 / RFU, N4BP2L2 / Fold change vs veh, N4BP2L2 / RFU, ARFIP1 / Fold change vs veh, ARFIP1 / RFU, FAM179B / Fold change vs veh, FAM179B / RFU, BCL10 / Fold change vs veh, BCL10 / RFU, UHRF1BP1L / Fold change vs veh, UHRF1BP1L / RFU, BET1 / Fold change vs veh, BET1 / RFU, CNOT2 / Fold change vs veh, CNOT2 / RFU, ZNF268 / Fold change vs veh, ZNF268 / Fold change vs veh, ZNF507 / RFU, DGCR2 / Fold change vs veh, DGCR2 / RFU, WDSUB1 / Fold change vs veh, WDSUB1 / Fold change vs veh, HSP90B1 /// MIR3652 / RFU, ADSS / Fold change vs veh, ADSS / RFU, GK / Fold change vs veh, GK / RFU, ZNF148 / Fold change vs veh, ZNF148 / RFU, TAF9 / Fold change vs veh, TAF9 / RFU, SLC1A5 / Fold change vs veh, SLC1A5 / RFU, SLMO2 / Fold change vs veh, SLMO2 / RFU, ABCC4 / Fold change vs veh, ABCC4 / RFU, LOC101060439 /// RAP1B / Fold change vs veh, LOC101060439 /// RAP1B / RFU, RFX7 / Fold change vs veh, RFX7 / RFU, GTPBP10 / Fold change vs veh, GTPBP10 / RFU, CNEP1R1 / Fold change vs veh, CNEP1R1 / RFU, BIVM-ERCC5 /// ERCC5 / Fold change vs veh, BIVM-ERCC5 /// ERCC5 / RFU, ILF3 / Fold change vs veh, ILF3 / RFU 11762660_at / Fold change /veh 11762660_at / RFU VCAN (11757783_s_at) / Fold change /veh VCAN (11757783_s_at) / RFU DDX43 (11728927_at) / Fold change /veh DDX43 (11728927_at) / RFU KRT8 (11758188_x_at) / Fold change /veh KRT8 (11758188_x_at) / RFU NKD1 (11759106_at) / Fold change /veh NKD1 (11759106_at) / RFU SRD5A1 (11742802_a_at) / Fold change /veh SRD5A1 (11742802_a_at) / RFU TPSAB1 /// TPSB2 (11721975_s_at) / Fold change /veh TPSAB1 /// TPSB2 (11721975_s_at) / RFU GSTM3 (11746129_a_at) / Fold change /veh GSTM3 (11746129_a_at) / RFU IL23R (11737362_x_at) / Fold change /veh IL23R (11737362_x_at) / RFU TMEM51 (11727254_a_at) / Fold change /veh TMEM51 (11727254_a_at) / RFU PIWIL2 (11732686_x_at) / Fold change /veh PIWIL2 (11732686_x_at) / RFU ORM1 (11744905_x_at) / Fold change /veh ORM1 (11744905_x_at) / RFU CCDC152 (11743942_at) / Fold change /veh CCDC152 (11743942_at) / RFU ECM1 (11717891_a_at) / Fold change /veh ECM1 (11717891_a_at) / RFU IL23R (11748794_a_at) / Fold change /veh IL23R (11748794_a_at) / RFU TNFAIP8L3 (11732012_x_at) / Fold change /veh TNFAIP8L3 (11732012_x_at) / RFU MBOAT4 (11741988_at) / Fold change /veh MBOAT4 (11741988_at) / RFU 11764193_at / Fold change /veh 11764193_at / RFU TMEM53 (11763286_at) / Fold change /veh TMEM53 (11763286_at) / RFU MAGEB2 (11727129_at) / Fold change /veh MAGEB2 (11727129_at) / RFU TMEM200A (11744735_a_at) / Fold change /veh TMEM200A (11744735_a_at) / RFU CCDC152 (11751479_a_at) / Fold change /veh CCDC152 (11751479_a_at) / RFU FAM211A (11726209_a_at) / Fold change /veh FAM211A (11726209_a_at) / RFU RGS16 (11746705_a_at) / Fold change /veh RGS16 (11746705_a_at) / RFU VCAN (11755009_s_at) / Fold change /veh VCAN (11755009_s_at) / RFU RHOB (11743442_s_at) / Fold change /veh RHOB (11743442_s_at) / RFU RGS16 (11720943_a_at) / Fold change /veh RGS16 (11720943_a_at) / RFU RGS16 (11720944_at) / Fold change /veh RGS16 (11720944_at) / RFU, VPS4B / Fold change vs veh, VPS4B / RFU, CREB1 / Fold change vs veh, CREB1 / RFU, DNAJC13 / Fold change vs veh, DNAJC13 / RFU, GNAQ / Fold change vs veh, GNAQ / RFU, CDK5R1 / Fold change vs veh, CDK5R1 / RFU, ZRANB3 / Fold change vs veh, ZRANB3 / RFU, CUL4A / Fold change vs veh, CUL4A / RFU, CCNY / Fold change vs veh, CCNY / RFU, UFL1 / Fold change vs veh, UFL1 / RFU, COG3 / Fold change vs veh, COG3 / RFU, DIAPH2 / Fold change vs veh, DIAPH2 / RFU, SKA2 / Fold change vs veh, SKA2 / RFU, AFF3 / Fold change vs veh, AFF3 / RFU, LMF1 / Fold change vs veh, LMF1 / RFU, IPO11 / Fold change vs veh, IPO11 / RFU, DFFB / Fold change vs veh, DFFB / RFU, FOXP1 / Fold change vs veh, FOXP1 / RFU, CARD8 / Fold change vs veh, CARD8 / RFU, STRN3 / Fold change vs veh, STRN3 / RFU, ADK / Fold change vs veh, ADK / RFU, RASSF2 / Fold change vs veh, RASSF2 / RFU, WIPF1 / Fold change vs veh, WIPF1 / RFU, LARP1B / Fold change vs veh, LARP1B / RFU, RASA1 / Fold change vs veh, RASA1 / RFU, RB1 / Fold change vs veh, RB1 / RFU, PPFIA1 / Fold change vs veh, PPFIA1 / RFU, MAT2A / Fold change vs veh, MAT2A / RFU, CCT5 / Fold change vs veh, CCT5 / RFU, WDR92 / Fold change vs veh, WDR92 / RFU, CUX1 / Fold change vs veh, CUX1 / RFU, TTC7A / Fold change vs veh, TTC7A / RFU, TMEM135 / Fold change vs veh, TMEM135 / RFU, DEPTOR / Fold change vs veh, DEPTOR / RFU, CPM / Fold change vs veh, CPM / RFU, DNAJB6 / Fold change vs veh, DNAJB6 / RFU, CACNA2D3 / Fold change vs veh, CACNA2D3 / RFU, DTX4 / Fold change vs veh, DTX4 / RFU, TFCP2 / Fold change vs veh, TFCP2 / RFU, GMCL1 /// GMCL1P1 / Fold change vs veh, GMCL1 /// GMCL1P1 / RFU, AEBP2 / Fold change vs veh, AEBP2 / RFU, SNHG1 /// SNORD22 /// SNORD25 /// SNORD26 /// SNORD27 /// SNORD28 /// SNORD29 /// SNORD31 / Fold change vs veh, SNHG1 /// SNORD22 /// SNORD25 /// SNORD26 /// SNORD27 /// SNORD28 /// SNORD29 /// SNORD31 / Fold change (Aza/veh), C12orf56 (ProbeSet 11735607_a_at) / Fold change (ACY-1035/veh), C12orf56 (ProbeSet 11735607_a_at) / Fold change (Aza/veh), FGFR1OP (ProbeSet 11751329_s_at) / Fold change (ACY-1035/veh), FGFR1OP (ProbeSet 11751329_s_at) / Fold change (Aza/veh), VPS36 (ProbeSet 11739960_a_at) / Fold change (ACY-1035/veh), VPS36 (ProbeSet 11739960_a_at) / RFU SYPL1 (11715823_x_at) / Fold change /veh SYPL1 (11715823_x_at) / RFU IGFBP7 (11715501_s_at) / Fold change /veh IGFBP7 (11715501_s_at) / RFU REEP3 (11722064_at) / Fold change /veh REEP3 (11722064_at) / RFU IGLL1 (11728026_x_at) / Fold change /veh IGLL1 (11728026_x_at): dose or concentration left out as unconfirmed. The conditions noted are these: ProbeSet 11732281_s_at; LIST D.

On to `Nc1ccc(-c2cccs2)cc1NC(=O)c1ccc2c(c1)cc(C1CC1)n2CCN1CCOCC1` [ACY-1035], for which the “RFU, FOXP1” value is reported as 243.86 RFU.
